Data set [1] deals with BV2 murine microglia. It is filed as cell-based. The conditions noted are these: subdural solution, DC experiment, 3 days incubation.
Procedure: Bioactivity of electrically released drug was tested in an in vitro neuroinflammation model, in which drugs were released into wells of activated BV2 murine microglia. Healthy BV2 cells were seeded in 12-well plates at a density of 100,000 cells/well, in 1.6 mL of Dulbecco's modified eagle media (DMEM, Gibco) with 4.5 g/L D-glucose, 584 mg/L L-glutamine, and 110 mg/L sodium pyruvate (Invitrogen). The DMEM was supplemented with 5% fetal bovine serum (Invitrogen) and 2% anti-mycotic/anti-biotic (Invitrogen). Following seeding, the cells were incubated at 37° C. overnight to allow for settling and adhesion. Cells in activated treatment groups were activated by the replacement of media with fresh DMEM containing 0.005% interferon gamma (Ifn-γ, Invitrogen) and 1% lipopolysaccharide (LPS, ThermoFisher). Unactivated controls received normal fresh DMEM. Cells were then incubated for 1 hour before application of treatment in groups of n=6, in order to simulate realistic conditions in which there is a duration between traumatic SCI occurrence and access to treatment. […]
Cell viability was measured using an MTS assay (CellTiter 96® AQueous One Solution Cell Proliferation Assay, Promega). […] The incubation was followed by detection of absorbance at 490 nm. The MTS absorbance in each group was normalized to the absorbance of the unactivated group.
The test system of data set [2] is activated BV2 murine microglia. The data set is described as follows: In vitro neuroinflammation assay (NO by Griess, cytokines by Luminex). It is filed as cell-based. The conditions noted are these: for NO release normalized to viable cells: DC experiment. The method, then: Bioactivity of electrically released drug was tested in an in vitro neuroinflammation model, in which drugs were released into wells of activated BV2 murine microglia. Healthy BV2 cells were seeded in 12-well plates at a density of 100,000 cells/well, in 1.6 mL of Dulbecco's modified eagle media (DMEM, Gibco) with 4.5 g/L D-glucose, 584 mg/L L-glutamine, and 110 mg/L sodium pyruvate (Invitrogen). The DMEM was supplemented with 5% fetal bovine serum (Invitrogen) and 2% anti-mycotic/anti-biotic (Invitrogen). Following seeding, the cells were incubated at 37° C. overnight to allow for settling and adhesion. Cells in activated treatment groups were activated by the replacement of media with fresh DMEM containing 0.005% interferon gamma (Ifn-γ, Invitrogen) and 1% lipopolysaccharide (LPS, ThermoFisher). Unactivated controls received normal fresh DMEM. Cells were then incubated for 1 hour before application of treatment in groups of n=6, in order to simulate realistic conditions in which there is a duration between traumatic SCI occurrence and access to treatment.
Treatment was applied transdurally from microneedles into the cell media though the transdural insert model as previously described in the In Vitro Transdural Release section. Diagrams of experimental conditions can be found in FIGS. 5A-5G. Microneedles were similarly applied manually, then underwent a potentiostatic or cyclic electrical stimulation. Direct current potential was applied for only 2 minutes to minimize electrical imbalance applied to the cells, while delivering sufficient drug to achieve therapeutic effect. Cyclic voltammetry was applied for 15 cycles, equating to 10 minutes. Epidural drug solution controls were similarly applied to the neuroinflammation model by pipetting over the transdural insert. In addition, a subdural solution control was introduced to the neuroinflammation studies in which the Dexa solution is applied directly to the cell media, bypassing the transdural insert.
Following 3 days of incubation, cell media was assayed for markers of inflammation. Free radical nitric oxide (NO) was quantified using a Griess reagent kit (Invitrogen) that detects NO reduced to nitrites in cell medias. Colorimetric NO quantification was performed following the protocols provided in the Griess reagent kit. Pro-inflammatory cytokines were quantified using a Luminex Magpix Multiplexing assay (Millipore). Cytokines quantified include interleukin-1-beta (IL-1β), interleukin-6 (IL-6), and tumor necrosis factor alpha (TNF-α). Cells treated in the CV stimulated experiment were additionally quantified for the release of monocyte chemoattractant protein 1 (MCP-1). The Luminex multiplexing assays were performed following the protocol provided in the kit.
For orientation: Griess reagent forms a coloured azo dye with nitrite.

Setting [3] is: epidural solution, CV experiment.

Here are results for 1 compound from patent publication US11607383B2, “Conductive polymer microneedle arrays for electronically-controlled drug release” (University of Washington, priority 2019, dated 2023).

On to `C[C@@H]1C[C@H]2[C@@H]3CCC4=CC(=O)C=C[C@]4(C)[C@@]3(F)[C@@H](O)C[C@]2(C)[C@@]1(O)C(=O)COP(=O)(O)O` [Dexa solution, dexamethasone phosphate], for which the “relative cell viability (MTS)” value in data set [1] is listed as “slight decreases in viability, though not significant”. The “MCP-1 release normalized for viable cells” value in data set [2] (setting [3]) is given as “did not see the same decrease”. The “NO release normalized for viable cells” value in data set [2] (setting [3]) is “did not see similar reductions in NO release”. For the same compound, the “NO release normalized to viable cells” value is reported as “did not demonstrate the same decrease” in data set [2] (epidural solution) and “significant decrease” in data set [2] (subdural solution).
